Data: article PMC12015381, “Target Agnostic Photoaffinity Labelling by Sulfonylhydrazones” (Angewandte Chemie (International Ed. in English), 2025)

Experiments:
[1] = target: T1, STAT5b (Signal transducer and activator of transcription 5b) (Homo sapiens, UniProt P51692); experiment: covalent photolabelling by tryptic digestion and LC-MS/MS; STAT5b inhibition assay with irradiation (no inhibition under […] without irradiation); format: binding
T1 sequence (P51692 1-787): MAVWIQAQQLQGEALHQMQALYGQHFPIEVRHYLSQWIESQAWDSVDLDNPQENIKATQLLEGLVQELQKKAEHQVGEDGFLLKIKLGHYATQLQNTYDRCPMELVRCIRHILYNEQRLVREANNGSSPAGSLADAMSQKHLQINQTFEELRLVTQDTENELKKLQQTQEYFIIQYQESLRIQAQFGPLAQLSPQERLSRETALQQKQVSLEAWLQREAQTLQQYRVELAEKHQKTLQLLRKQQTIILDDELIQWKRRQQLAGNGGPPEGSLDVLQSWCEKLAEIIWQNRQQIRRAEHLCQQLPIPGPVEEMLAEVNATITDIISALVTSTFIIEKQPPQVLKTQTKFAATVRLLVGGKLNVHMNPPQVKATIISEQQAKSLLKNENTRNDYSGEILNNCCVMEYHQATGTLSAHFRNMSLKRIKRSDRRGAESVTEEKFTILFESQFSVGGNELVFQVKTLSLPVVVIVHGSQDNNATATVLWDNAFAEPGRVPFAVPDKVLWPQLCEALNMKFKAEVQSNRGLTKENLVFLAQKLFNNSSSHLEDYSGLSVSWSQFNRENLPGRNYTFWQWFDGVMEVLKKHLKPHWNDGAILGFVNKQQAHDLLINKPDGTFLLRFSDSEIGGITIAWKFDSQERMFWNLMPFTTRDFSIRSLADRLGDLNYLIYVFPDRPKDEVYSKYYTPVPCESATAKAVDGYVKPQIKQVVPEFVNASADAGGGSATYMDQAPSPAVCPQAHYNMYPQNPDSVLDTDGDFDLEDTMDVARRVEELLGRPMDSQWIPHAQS

[2] = target: acetylcholine esterase (AChE) (Electrophorus electricus, UniProt O42275); experiment: biochemical enzyme inhibition assay after photoactivation at […] nm (no inhibition without irradiation); covalent labelling by enzymatic digestion and MS
acetylcholine esterase (AChE), sequence (O42275 24-633): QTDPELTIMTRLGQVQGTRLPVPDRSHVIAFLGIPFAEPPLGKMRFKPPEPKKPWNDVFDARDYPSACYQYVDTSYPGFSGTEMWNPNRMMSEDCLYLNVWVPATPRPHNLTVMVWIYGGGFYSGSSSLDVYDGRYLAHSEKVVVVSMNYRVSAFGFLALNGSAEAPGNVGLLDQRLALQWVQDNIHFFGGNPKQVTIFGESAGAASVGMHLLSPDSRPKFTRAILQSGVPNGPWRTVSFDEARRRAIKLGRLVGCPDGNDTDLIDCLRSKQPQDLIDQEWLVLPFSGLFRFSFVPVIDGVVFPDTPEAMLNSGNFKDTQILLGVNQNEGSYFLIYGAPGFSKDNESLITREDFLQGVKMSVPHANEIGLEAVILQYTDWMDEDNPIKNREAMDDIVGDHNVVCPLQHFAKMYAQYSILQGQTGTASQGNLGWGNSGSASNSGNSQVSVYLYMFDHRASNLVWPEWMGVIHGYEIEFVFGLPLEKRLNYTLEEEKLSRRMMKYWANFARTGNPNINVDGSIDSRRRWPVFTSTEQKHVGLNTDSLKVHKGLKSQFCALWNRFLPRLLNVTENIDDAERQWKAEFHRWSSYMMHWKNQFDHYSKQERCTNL

| Compound | IC50 [1] | IC50 [2] |
| --- | --- | --- |
| O=c1c(/C=N/NS(=O)(=O)c2cccnc2)coc2ccccc12 [compound 10, 10] | 24.1 µM |  |
| COc1cc2c(cc1OC)C(=NNS(=O)(=O)c1ccc(C)cc1)C(CC1CCN(Cc3ccccc3)CC1)C2 (centres unmarked) [compound 12, donepezil-tosylhydrazone] |  | 0.379 µM |
